The target in one assay is T1, human σ1 receptor (Homo sapiens, UniProt Q99720).
T1 construct: expressed in transfected cells; host or cells: HEK-293
The experiment in a line: Human σ1 receptor radioligand assay ([3H](+)-pentazocine, transfected HEK-293 membranes). Particulars: class scale, read-out: Binding σ-1 Ki. The essentials:
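Compounds were tested at a single 1 or 10 μM concentration (% inhibition) or at five concentrations to give Ki. They competed with 5 nM [3H](+)-pentazocine for transfected HEK-293 membranes (7 μg) in 50 mM Tris-HCl pH 8 at 37° C for 120 minutes. Nonspecific binding was set with 10 μM haloperidol, and a filtration scintillation read-out was used.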

Another assay concerns the target T2, human σ2/TMEM97 receptor (Homo sapiens, UniProt Q5BJF2).
T2 construct: expressed in transfected cells; host or cells: HEK-293
The experiment in a line: Binding assay to human σ2/TMEM97 receptor ([3H]-DTG, transfected HEK-293 membranes). As to conditions: class scale, read-out: Binding σ-2 Ki. The essentials:
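Competition against 10 nM [3H]-DTG (Tris-HCl 50 mM, pH 8.0, 25 °C, 120 min) using 15 μg transfected HEK-293 membrane protein, with 10 μM haloperidol defining NSB. Bound radioactivity counted after filtration; results as single-point % inhibition (1 or 10 μM) or five-point Ki.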

Some results are limits rather than exact numbers.

T1 sequence (Q99720 whole entry): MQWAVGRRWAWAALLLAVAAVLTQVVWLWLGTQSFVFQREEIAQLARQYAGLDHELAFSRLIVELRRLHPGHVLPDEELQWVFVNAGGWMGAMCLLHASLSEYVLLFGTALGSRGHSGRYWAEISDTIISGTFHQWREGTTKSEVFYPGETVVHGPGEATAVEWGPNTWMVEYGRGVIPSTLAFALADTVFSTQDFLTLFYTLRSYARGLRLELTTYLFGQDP
T2 sequence (Q5BJF2 whole entry): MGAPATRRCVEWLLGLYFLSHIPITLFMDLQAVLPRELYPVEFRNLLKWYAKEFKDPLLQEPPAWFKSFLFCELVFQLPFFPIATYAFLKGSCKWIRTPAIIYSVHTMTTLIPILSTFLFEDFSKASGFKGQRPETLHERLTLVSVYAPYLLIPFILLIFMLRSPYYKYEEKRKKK

In the case of `CCc1nc(C)c(-c2nn(C)c(Cl)c2C(=O)N2CCCC3(CCN(CCC(C)(C)C)CC3)C2)o1` [Example 133, (5-Chloro-3-(2-ethyl-4-methyloxazol-5-yl)-1-methyl-1H-pyrazol-4-yl)(9-(3,3-dimethylbutyl)-2,9-diazaspiro[5.5]undecan-2-yl)methanone], the inhibition constant (Ki) at human σ1 receptor was 0.5 to 1 µM; on human σ2/TMEM97 receptor it was less than 0.1 µM.

As for `Cc1cc(-c2nn(C)c(Cl)c2C(=O)N2CCC3(CC2)CC(NCCC(C)(C)C)C3)no1` [Example 174, (5-Chloro-1-methyl-3-(5-methylisoxazol-3-yl)-1H-pyrazol-4-yl)(2-((3,3-dimethylbutyl)amino)-7-azaspiro[3.5]nonan-7-yl)methanone], the Ki was 0.5 to 1 µM on human σ1 receptor and less than 0.1 µM on human σ2/TMEM97 receptor.

`Cc1cc(-c2nn(C)c(Cl)c2C(=O)N2CC3(CCCN(CCC(C)(C)C)C3)C2)no1` [Example 144, (5-Chloro-1-methyl-3-(5-methylisoxazol-3-yl)-1H-pyrazol-4-yl)(6-(3,3-dimethylbutyl)-2,6-diazaspiro[3.5]nonan-2-yl)methanone]: the inhibition constant Ki at human σ1 receptor is 0.5 to 1 µM; on human σ2/TMEM97 receptor, 0.1 to 0.5 µM.

In the case of `CCn1nc(-c2cc(C(C)C)on2)c(C(=O)N2CCC3(CCN(CCC(C)(C)C)CC3)CC2)c1Cl` [Example 192, (5-Chloro-1-ethyl-3-(5-isopropylisoxazol-3-yl)-1H-pyrazol-4-yl)(9-(3,3-dimethylbutyl)-3,9-diazaspiro[5.5]undecan-3-yl)methanone], the inhibition constant Ki on human σ1 receptor was 0.1 to 0.5 µM; at human σ2/TMEM97 receptor, less than 0.1 µM.

For the molecule `CCn1nc(-c2ccon2)c(CC(=O)NC2CCC3(CC2)CCN(CCC(C)(C)C)CC3)c1Cl` [Example 219, 2-(5-Chloro-1-ethyl-3-(isoxazol-3-yl)-1H-pyrazol-4-yl)-N-(3-(3,3-dimethylbutyl)-3-azaspiro[5.5]undecan-9-yl)acetamide], the inhibitory constant (Ki) is 0.1 to 0.5 µM on human σ1 receptor and less than 0.1 µM on human σ2/TMEM97 receptor.

Turning to `Cc1cc(-c2nn(C)c(Cl)c2CN2CC[C@]3(C2)C[C@H](NCCC(C)(C)C)C3)no1` [Example 75, (2s,4r)-6-((5-Chloro-1-methyl-3-(5-methylisoxazol-3-yl)-1H-pyrazol-4-yl)methyl)-N-(3,3-dimethylbutyl)-6-azaspiro[3.4]octan-2-amine], the inhibition constant (Ki) at human σ1 receptor is 0.5 to 1 µM; at human σ2/TMEM97 receptor, less than 0.1 µM.

As for `Cn1ccc(-c2nn(C)c(Cl)c2C(=O)N2CCC3(CCN(CCC(C)(C)C)CC3)CC2)n1` [Example 181, (5-Chloro-1,1′-dimethyl-1H,1′H-[3,3′-bipyrazol]-4-yl)(9-(3,3-dimethylbutyl)-3,9-diazaspiro[5.5]undecan-3-yl)methanone], the inhibitory constant (Ki) was greater than 1 µM on human σ1 receptor and 0.1 to 0.5 µM at human σ2/TMEM97 receptor.

Consider `Cc1cc(-c2nn(C)c(Cl)c2CN2CCCC(CNCC(C)C)C2)no1` (stereo not shown) [Example 48, N-((1-((5-Chloro-1-methyl-3-(5-methylisoxazol-3-yl)-1H-pyrazol-4-yl)methyl)piperidin-3-yl)methyl)-2-methylpropan-1-amine], for which the Ki on human σ1 receptor is greater than 1 µM; on human σ2/TMEM97 receptor it was 0.1 to 0.5 µM.

Take `Cc1cc(-c2nn(C)c(Cl)c2CN2CCC3(CCN(CCC(C)(C)C)CC3)CC2=O)no1` [Example 115, 3-((5-Chloro-1-methyl-3-(5-methylisoxazol-3-yl)-1H-pyrazol-4-yl)methyl)-9-(3,3-dimethylbutyl)-3,9-diazaspiro[5.5]undecan-2-one]: the inhibitory constant (Ki) at human σ1 receptor was 0.1 to 0.5 µM; on human σ2/TMEM97 receptor it was less than 0.1 µM.

Regarding `Cc1cc(-c2nn(C)c(Cl)c2C(=O)N2CCCCC(NCCc3ccccc3)C2)no1` (stereo not shown) [Example 85, (5-Chloro-1-methyl-3-(5-methylisoxazol-3-yl)-1H-pyrazol-4-yl)(3-(phenethylamino)azepan-1-yl)methanone], the Ki was greater than 1 µM at human σ1 receptor and 0.1 to 0.5 µM on human σ2/TMEM97 receptor.

Turning to `CCn1nc(-c2cnn(C(C)C)c2)c(C(=O)NC2CC3(CCN(CCC(C)(C)C)CC3)C2)c1Cl` [Example 149, 5-Chloro-N-(7-(3,3-dimethylbutyl)-7-azaspiro[3.5]nonan-2-yl)-1-ethyl-1′-isopropyl-1H,1′H-[3,4′-bipyrazole]-4-carboxamide], the Ki is 0.1 to 0.5 µM at human σ1 receptor and less than 0.1 µM at human σ2/TMEM97 receptor.

Take `Cc1cc(-c2nn(C)c(Cl)c2CC(=O)NC2CCC3(CC2)CCN(CCC(C)(C)C)CC3)no1` [Example 215, 2-(5-Chloro-1-methyl-3-(5-methylisoxazol-3-yl)-1H-pyrazol-4-yl)-N-(3-(3,3-dimethylbutyl)-3-azaspiro[5.5]undecan-9-yl)acetamide]: the values for the Ki on human σ1 receptor and at human σ2/TMEM97 receptor were 0.1 to 0.5 µM and less than 0.1 µM, respectively.

With `Cc1cc(-c2nn(C)c(Cl)c2CN2CCC(NCCC(C)(C)C)C2)no1` (stereo not shown) [Example 13, 1-((5-Chloro-1-methyl-3-(5-methylisoxazol-3-yl)-1H-pyrazol-4-yl)methyl)-N-(3,3-dimethylbutyl)pyrrolidin-3-amine], the Ki on human σ1 receptor and at human σ2/TMEM97 receptor was 0.1 to 0.5 µM each time.

As for `Cc1cc(-c2nn(C)c(Cl)c2CN2CCC[C@H](NCCc3ccccc3)C2)no1` [Example 7, (S)-1-((5-Chloro-1-methyl-3-(5-methylisoxazol-3-yl)-1H-pyrazol-4-yl)methyl)-N-phenethylpiperidin-3-amine], the Ki on human σ1 receptor was 0.1 to 0.5 µM; at human σ2/TMEM97 receptor it was greater than 1 µM.

For `Cc1cc(-c2nn(C)c(Cl)c2C(=O)N2CCC[C@H](NCCC(C)C)C2)no1` [Example 109, (S)-(5-Chloro-1-methyl-3-(5-methylisoxazol-3-yl)-1H-pyrazol-4-yl)(3-(isopentylamino)piperidin-1-yl)methanone], the inhibition constant Ki at human σ1 receptor and on human σ2/TMEM97 receptor was greater than 1 µM in each case.

For `Cc1cc(-c2nn(C)c(Cl)c2CN2C[C@H](CNCCC(C)(C)C)[C@@H](C)C2)no1` [Example 78, N-(((3S,4R)-1-((5-Chloro-1-methyl-3-(5-methylisoxazol-3-yl)-1H-pyrazol-4-yl)methyl)-4-methylpyrrolidin-3-yl)methyl)-3,3-dimethylbutan-1-amine], the Ki on human σ1 receptor is 0.1 to 0.5 µM; at human σ2/TMEM97 receptor, less than 0.1 µM.

For the molecule `Cc1cc(-c2nn(C)c(Cl)c2CN2CCCC(CNCCc3ccccc3)C2)no1` (stereo not shown) [Example 57, N-((1-((5-Chloro-1-methyl-3-(5-methylisoxazol-3-yl)-1H-pyrazol-4-yl)methyl)piperidin-3-yl)methyl)-2-phenylethanamine], the results for the inhibitory constant (Ki) at human σ1 receptor and on human σ2/TMEM97 receptor were 0.5 to 1 µM and 0.1 to 0.5 µM, respectively.

Regarding `Cc1cc(-c2nn(C)c(Cl)c2C(=O)N2CCC[C@@H](NCCC(C)C)C2)no1` [Example 108, (R)-(5-Chloro-1-methyl-3-(5-methylisoxazol-3-yl)-1H-pyrazol-4-yl)(3-(isopentylamino)piperidin-1-yl)methanone], the Ki was 0.1 to 0.5 µM at human σ1 receptor and greater than 1 µM on human σ2/TMEM97 receptor.

`Cc1cc(-c2nn(C)c(Cl)c2C(=O)N2CCC[C@H](CNCCC(C)C)C2)no1` [Example 125, (R)-(5-Chloro-1-methyl-3-(5-methylisoxazol-3-yl)-1H-pyrazol-4-yl)(3-((isopentylamino)methyl)piperidin-1-yl)methanone]: the Ki is greater than 1 µM on human σ1 receptor and 0.5 to 1 µM at human σ2/TMEM97 receptor.

As to `CCn1nc(-c2cc(C)on2)c(CN2CCCCC(NCCC(C)(C)C)C2)c1Cl` (stereo not shown) [Example 22, 1-((5-Chloro-1-ethyl-3-(5-methylisoxazol-3-yl)-1H-pyrazol-4-yl)methyl)-N-(3,3-dimethylbutyl)azepan-3-amine], the inhibitory constant (Ki) at human σ1 receptor and at human σ2/TMEM97 receptor was 0.1 to 0.5 µM in each case.

With `Cc1cc(-c2nn(C(C)C)c(Cl)c2C(=O)N2CC3(CCN(CCC(C)(C)C)CC3)C2)no1` [Example 188, (5-Chloro-1-isopropyl-3-(5-methylisoxazol-3-yl)-1H-pyrazol-4-yl)(7-(3,3-dimethylbutyl)-2,7-diazaspiro[3.5]nonan-2-yl)methanone], the inhibition constant (Ki) at human σ1 receptor is 0.5 to 1 µM; on human σ2/TMEM97 receptor it was less than 0.1 µM.

For the molecule `CCn1nc(-c2cc(C)on2)c(C(=O)N2CCC3(CCN(CCC(C)(C)C)CC3)CC2)c1Cl` [Example 99, (5-Chloro-1-ethyl-3-(5-methylisoxazol-3-yl)-1H-pyrazol-4-yl)(9-(3,3-dimethylbutyl)-3,9-diazaspiro[5.5]undecan-3-yl)methanone], the Ki at human σ1 receptor was 0.5 to 1 µM; on human σ2/TMEM97 receptor, less than 0.1 µM.

On to `CCc1cc(-c2nn(CC)c(Cl)c2C(=O)NC2CC3(CCN(CCC(C)(C)C)CC3)C2)no1` [Example 136, 5-Chloro-N-(7-(3,3-dimethylbutyl)-7-azaspiro[3.5]nonan-2-yl)-1-ethyl-3-(5-ethylisoxazol-3-yl)-1H-pyrazole-4-carboxamide], for which the inhibition constant (Ki) at human σ1 receptor and at human σ2/TMEM97 receptor was less than 0.1 µM in each case.

Regarding `CCn1nc(-c2cc(C)on2)c(CC(=O)NC2CCC3(CC2)CCN(CCC(C)(C)C)CC3)c1Cl` [Example 216, 2-(5-Chloro-1-ethyl-3-(5-methylisoxazol-3-yl)-1H-pyrazol-4-yl)-N-(3-(3,3-dimethylbutyl)-3-azaspiro[5.5]undecan-9-yl)acetamide], the inhibition constant Ki on human σ1 receptor and on human σ2/TMEM97 receptor was less than 0.1 µM in each case.

On to `Cc1cc(-c2nn(C)c(Cl)c2CN2CC[C@@]3(CCN(CCC(C)(C)C)C3)C2)no1` [Example 70, (R)-3-(5-chloro-4-((7-(3,3-dimethylbutyl)-2,7-diazaspiro[4.4]nonan-2-yl)methyl)-1-methyl-1H-pyrazol-3-yl)-5-methylisoxazole], for which the Ki at human σ1 receptor and at human σ2/TMEM97 receptor was less than 0.1 µM throughout.

Turning to `Cc1cc(-c2nn(C)c(Cl)c2CN2CCCC(NCCC(C)C)CC2=O)no1` (stereo not shown) [Example 118, 1-((5-Chloro-1-methyl-3-(5-methylisoxazol-3-yl)-1H-pyrazol-4-yl)methyl)-4-(isopentylamino)azepan-2-one], the Ki on human σ1 receptor is greater than 1 µM; at human σ2/TMEM97 receptor, 0.1 to 0.5 µM.

These data come from patent publication US20240239781A1, “1H-PYRAZOLE DERIVATIVES AS SIGMA LIGANDS” (ACONDICIONAMIENTO TARRASENSE, priority 2021, published 2024).
